Results on four compounds are retold here after patent US20250163044A1, “COMPOUNDS” (PSYLO PTY LTD, priority 2021, published 2025).

One data set relates to Male ICR mice. The experiment in a line: Acute restraint stress - tail suspension test (TST). It is filed as in vivo. As to conditions: ICR mice after 5 h acute restraint stress, IP, 10 min before test; P-3 3, 10 mg/kg; P-8 3, 10, 30 mg/kg. As to the method:
Male ICR mice (23±3 g) were purchased from BioLASCO (Taipei, Taiwan) at 4-5 weeks of age and allowed 5-7 days to acclimate to the animal research facility at Pharmacology Discovery Services (Taipei, Taiwan). Mice were housed in groups of 10 in a large cage (47×25×15 cm) on a 12-hour light cycle (lights on: 0700) and provided ad libitum food and water except during acute restraint stress and tail-suspension testing. Temperature was maintained at 20-24° C., and all rooms (colony and testing rooms) had similar lighting intensity. All aspects of this work including housing, experimentation, and animal disposal were performed in accordance with the “Guide for the Care and Use of Laboratory Animals: Eighth Edition” (The National Academies Press, Washington, DC, 2011) in a facility accredited by the Association for Assessment and Accreditation of Laboratory Animal Care. […]
Tail Suspension Test (TST) Procedure: Mice were individually suspended on the edge of a shelf, 58 cm above a tabletop, using adhesive tape placed approximately 1 cm from the tip of the tail, for a total duration of 7 minutes. Using a stopwatch, the experimenters blinded to treatment groups recorded the duration of immobility (defined as hanging passively and motionless) during the 5 minutes spanning from 2-7 minutes. The data from 0-2 minutes was not recorded. […]

A further data set concerns C57BL/6J mice. The data set is described as follows: Biotelemetry and head-twitch response (HTR) experiments. In kind it is in vivo, Mice (C57BL/6J males). As to conditions: male C57BL/6 mice, SC, several doses (0.03 to 30 mg/kg). The text has this:
Mice (C57BL/6J males) were purchased from the Jackson Laboratory (Bar Harbor, ME, USA) at 5-6 weeks of age and allowed at least 1-2 weeks to acclimate to the NIDA, Intramural Research Program (IRP), animal research facility in Baltimore, MD, USA. The animal facility is fully accredited by the Association for the Assessment and Accreditation of Laboratory Animal Care, and all procedures were approved by the NIDA IRP Animal Care and Use Committee. Mice were initially group housed 3-5 per cage during acclimation and housed in a 12 h light-dark cycle throughout the study, with lights on at 0700 h. Food and water were available ad libitum except during testing. Cohorts of 20-24 mice were used for each test drug. The mice were subjected to experimental testing once every 1-2 weeks for 2-3 months to complete dose-effect curves and antagonist experiments. A minimum of 7 days between treatments was utilized to avoid any tolerance to effects of repeated drug administration. All drug doses represent the weight of the salt dissolved in 0.9% saline vehicle. Mice were tested first in dose-response studies to assess the effects of each compound at doses from 0.03 to 30 mg/kg s.c. and were subsequently tested in antagonist reversal studies utilizing pretreatment with M100907 and WAY100635. All experiments were conducted from 0900 to 1700 local time during the light phase, as sensitivity of rodents to other tryptamine psychedelics is diurnal, with maximal HTR observed in the middle of the light phase. Experiments were run during the light phase also to avoid any potential influence of melatonin receptor activity on HTR as melatonin and related agonists are known to reduce HTR induced by DOI in rats. For each experiment, mice were acclimated to the testing room in their home cage for at least 1 h prior to experimental sessions. Behavioral test sessions were carried out in Tru Scan mouse locomotor arenas equipped with photobeam arrays (Coulbourn Instruments, Holliston, MA, USA), which were modified with cylindrical inserts and transparent floors useful in detecting mouse HTR.
Subcutaneous Temperature Transponder Implants. At least 1 week prior to the start of the experiments, mice received s.c. implanted temperature transponders (14×2 mm, model IPTT-300, Bio Medic Data Systems, Inc., Seaford, DE, USA) under brief isoflurane anesthesia. Mice were single housed post implant for the remainder of the study to protect the transponder from removal by cage mates. Temperature was determined noninvasively using a handheld receiver that is sensitive to signals emitted from the implanted transponders.
Prior to each experiment, mouse body weight and temperature were recorded. Mice were then placed into testing chambers for acclimation. In dose-response studies, after a brief 5 min acclimation, mouse body temperature was recorded for baseline measurement, mice received s.c. injection of test substance or vehicle, and animals were returned to the testing arena for 30 min. During the session, locomotor activity was monitored via photobeam tracking of movements in the horizontal plane to yield distance traveled in centimeter. HTR was monitored by the analysis of GoPro Hero Black 7 video recordings (120 frames per sec and 960p resolution) using a commercially available software package from Clever Sys Inc. (Reston, VA, USA). 82 Post-treatment body temperature values were also recorded, and temperature data are represented as change from pretreatment baseline.
In antagonist reversal experiments, mice received a s.c. injection of either receptor antagonists or vehicle and were returned to the testing chamber for 30 min. During this period, locomotor activity was monitored to examine the potential effects of antagonist treatment on general behavior or movement. At 30 min after antagonist administration, mice were given test drug or vehicle and returned to the chambers for an additional 30 min of video recording used for analyses. […]

The next data set has as its target T1, 5-HT2C receptor (Homo sapiens, UniProt P28335).
T1 construct: host or cells: HEK293
T1 sequence (P28335 33-458): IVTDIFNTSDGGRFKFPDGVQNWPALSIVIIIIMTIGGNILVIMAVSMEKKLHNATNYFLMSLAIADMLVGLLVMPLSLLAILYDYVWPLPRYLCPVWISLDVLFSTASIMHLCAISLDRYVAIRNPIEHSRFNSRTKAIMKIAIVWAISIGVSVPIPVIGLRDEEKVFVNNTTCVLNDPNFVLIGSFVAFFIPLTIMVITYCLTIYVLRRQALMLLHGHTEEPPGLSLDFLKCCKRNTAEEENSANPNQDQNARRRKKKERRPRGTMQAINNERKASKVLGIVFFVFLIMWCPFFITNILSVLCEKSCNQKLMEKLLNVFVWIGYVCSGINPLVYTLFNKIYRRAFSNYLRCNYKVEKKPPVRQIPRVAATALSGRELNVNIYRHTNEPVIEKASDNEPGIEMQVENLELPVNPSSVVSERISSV
The experiment in a line: FLIPR Ca2+ flux functional assay, agonist activity at 5-HT2C. It is filed as cell-based. In a few lines:
(§1)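 Stably transfected cells (HEK293 for 5-HT2A/2C, CHO-K1 for 5-HT2B) loaded 50 min at 37° C with Fluo-4 Direct dye plus 2.5 mM probenecid (final). Compounds tested as 10-point serial dilutions (3-fold; references 4-fold) and calcium fluorescence read on FLIPR Tetra after addition.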
Background: Calcium flux is commonly read through the fluorescence of an indicator in the cells.

For another data set, the target named is T2, 5-HT2B receptor (Homo sapiens, UniProt P41595).
T2 construct: host or cells: CHO-K1
T2 sequence (P41595 whole entry): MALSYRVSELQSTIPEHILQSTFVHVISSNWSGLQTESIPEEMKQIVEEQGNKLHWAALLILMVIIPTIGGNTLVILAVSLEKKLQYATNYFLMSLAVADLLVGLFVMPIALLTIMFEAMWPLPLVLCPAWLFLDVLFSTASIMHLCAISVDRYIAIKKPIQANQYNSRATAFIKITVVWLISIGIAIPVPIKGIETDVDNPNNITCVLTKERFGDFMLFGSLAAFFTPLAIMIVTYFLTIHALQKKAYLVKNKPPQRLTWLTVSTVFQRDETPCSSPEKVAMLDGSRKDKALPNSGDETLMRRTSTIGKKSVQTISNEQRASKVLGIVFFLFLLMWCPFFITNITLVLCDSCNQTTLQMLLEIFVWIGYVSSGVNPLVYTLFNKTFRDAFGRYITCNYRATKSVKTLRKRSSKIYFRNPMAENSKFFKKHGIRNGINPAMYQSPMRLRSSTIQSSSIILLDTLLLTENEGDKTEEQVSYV
The experiment in a line: FLIPR Ca2+ flux functional assay, agonist activity at 5-HT2B. In kind it is cell-based. In a few lines: as §1

Another data set concerns the target T3, 5-HT2A receptor (Homo sapiens, UniProt P28223).
T3 construct: host or cells: HEK293
The data set is described as follows: FLIPR Ca2+ flux functional assay, agonist activity at 5-HT2A. In kind it is cell-based. In a few lines:
as §1

A short description of data set [1]: In vivo pharmacokinetics: plasma and brain exposure after IP administration. More on the design: species or system male C57BL/6 mice.
Procedure: The systemic exposure of selected examples was studied in non-fasted male C57BL/6 mice weighing between 18.9-25.5 g. Mice had access to food and water ad libitum throughout the pre- and post-dose sampling period.
On the day of dosing, the formulation of each compound was prepared by dissolving solid compound in phosphate buffer saline (50 mM) using vortexing, creating colourless solutions (pH 6.4-6.5) for each compound.
Compounds were dosed to mice by IP injection (10 mL/kg dose volume via a 27G needle; n=9 mice per compound) and blood samples were collected at 5 and 30 min; 1, 2 and 4 h post-dose (n=3 mice per time point for each compound). A maximum of three blood samples were obtained from each mouse, with plasma samples being taken via submandibular bleed (approximately 120 μL). Once collected, blood samples were centrifuged immediately, supernatant plasma was removed, and stored at −80° C. until analysis by LCMS. In addition, at the 5 and 30 min and 4 h post-dose time points, the whole brain was rapidly removed from the carcass soon after the blood collection. The whole brains were blotted to remove excess blood, placed into pre-weighed polypropylene vials, and weighed. The brains were snap frozen in dry ice and subsequently stored frozen (−80° C.) until analysis.
Test compound standard solutions were diluted from a concentrated stock solution (32 mM in H2O) using 50% can in H2O (v/v) and a calibration curve was prepared in a matched matrix to the test samples.
Plasma: The plasma calibration curve was prepared by spiking aliquots of blank mouse plasma (25 μL) with test compound standard solutions (5 μL) and internal standard solution (5 μL of diazepam, 5 μg/mL in 50% acetonitrile in water). Test plasma samples (25 μL) were thawed, mixed, and then spiked with internal standard solution (5 μL). Plasma protein precipitation was performed by addition of acetonitrile (3-fold volume ratio) and thorough vortex mixing. Samples were centrifuged (RCF=9391×g) for 3 minutes and the supernatant (90 μL) was collected for analysis.
Tissue: Pre-weighed tissue samples (brain) were homogenised using a glass rod in buffer containing an EDTA/potassium fluoride solution (0.1 M/4 mg/mL) as a stabilisation cocktail to minimise the potential for ex vivo degradation (3 mL cocktail/g tissue). The tissue homogenate was briefly centrifuged (RCF=79×g) for 10 seconds to separate the foam layer before transferring an aliquot of the tissue homogenate (200 μL) to a fresh Eppendorf tube for sample extraction. Calibration standards were prepared by spiking blank brain homogenate (200 μL) with the solution standards (10 μL) and the internal standard (10 μL). Study samples were similarly prepared, except that acetonitrile (10 μL) was added instead of solution standards to maintain the same volume. Protein precipitation was carried out by the addition of a 3-fold volume of acetonitrile, followed by vortex mixing and centrifugation (RCF=9391×g) for 3 min to recover the supernatant for analysis.
Replicate analysis: Triplicate analytical replicate (ARs) samples were prepared similarly to the standards for each sample type at three concentrations (50, 500 and 2,000 ng/mL) and repeat injections of these ARs were included throughout the analytical run to assess assay performance. The extraction of the test compound from the standards and ARs were conducted as described above.
Where [2] appears, read: CHO-K1 cells, Ca2+ flux, read-out: 5-HT2B EC50.
Where [3] appears, read: 0.083 h, IP 10 mg/kg, individual mouse, 10 mg/kg.
The mark [4] stands for this setting: 0.5 h, IP 10 mg/kg, individual mouse, 10 mg/kg.
Setting [5] is: 4 h, IP 10 mg/kg, individual mouse.
[6] abbreviates: mouse, plasma, male C57BL/6 mice, IP 10 mg/kg.

Where “and” joins values, the source holds several entries; their conditions need not be identical. Equal entries are not always repeated. Where two headings read alike, the source gives them in different places.

T3 sequence (P28223 whole entry): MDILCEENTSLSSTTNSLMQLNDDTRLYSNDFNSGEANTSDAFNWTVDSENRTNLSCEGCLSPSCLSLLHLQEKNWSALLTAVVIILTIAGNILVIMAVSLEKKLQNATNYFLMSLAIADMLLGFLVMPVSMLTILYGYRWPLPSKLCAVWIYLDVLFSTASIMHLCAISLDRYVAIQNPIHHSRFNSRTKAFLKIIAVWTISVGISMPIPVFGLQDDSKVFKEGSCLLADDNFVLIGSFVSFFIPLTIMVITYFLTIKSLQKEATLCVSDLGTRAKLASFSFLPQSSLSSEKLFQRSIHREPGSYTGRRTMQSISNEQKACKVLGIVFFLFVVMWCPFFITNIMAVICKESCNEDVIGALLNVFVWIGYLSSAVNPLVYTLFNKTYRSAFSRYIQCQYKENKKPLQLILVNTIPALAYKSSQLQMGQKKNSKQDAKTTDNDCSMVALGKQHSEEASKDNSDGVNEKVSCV

For the compound `COc1cnc2[nH]cc(CCN(C)C)c2c1` [Example P-3, 2-(5-methoxy-1H-pyrrolo[2,3-b]pyridin-3-yl)-N,N-dimethylethan-1-amine], the “Immobility time in tail suspension test” value with Male ICR mice is given as “decrease the immobility time”. Further, in the data set on C57BL/6J mice, the “Head-twitch response (HTR)” value is on record as “not promoting increased head-twitch response” and the “Tolerability (temperature, locomotor activity)” value (from here on “Tolerability”) is “well-tolerated”.

Consider `COc1ccnc2[nH]cc(CCN(C)C)c12` [Example P-4, 2-(4-methoxy-1H-pyrrolo[2,3-b]pyridin-3-yl)-N,N-dimethylethan-1-amine], for which the Emax at 5-HT2C receptor (HEK293 cells, Ca2+ flux) was 17.9%; at 5-HT2B receptor (CHO-K1 cells, Ca2+ flux) it was -0.27%; on 5-HT2A receptor (HEK293 cells, Ca2+ flux), 35%. Also, the EC50 was 241 nM at 5-HT2C receptor (HEK293 cells, Ca2+ flux, read-out: 5-HT2C EC50); more than 10000 nM at 5-HT2B receptor (setting [2]); 1230 nM on 5-HT2A receptor (HEK293 cells, Ca2+ flux, read-out: 5-HT2A EC50). Further, in the data set with C57BL/6J mice, the “Head-twitch response (HTR)” value was “not promoting increased head-twitch response”. Besides, the “Tolerability” value in the data set on C57BL/6J mice is on record as “well-tolerated”.

With `COc1ccc2[nH]cc(CCN(C)C)c2n1` [Example P-1, 2-(5-methoxy-1H-pyrrolo[3,2-b]pyridin-3-yl)-N,N-dimethylethan-1-amine], the “B:P Ratio, Individual” value was 0.24 and 0.34 in data set [1] (setting [3]); 0.30 and 2.3 and 1.0 in data set [1] (setting [4]). Moreover, the “Plasma Concentration, Individual” value was 4300 nM and 7630 nM in data set [1] (setting [3]); 1030 nM and 307 nM and 420 nM in data set [1] (setting [4]); “<LLQ” in data set [1] (setting [5]). Moreover, the concentration at 0.5 h in data set [1] (0.083 h, IP 10 mg/kg, individual mouse, 10 mg/kg, read-out: Brain Parenchyma Concentration, Individual) is 2060 nM and 1040 nM and 2560 nM; in data set [1] (0.5 h, IP 10 mg/kg, individual mouse, 10 mg/kg, read-out: Brain Parenchyma Concentration, Individual), 307 nM and 701 nM and 437 nM; in data set [1] (male, C57BL/6, mouse, brain, ip, 10 mg/kg, 0.5 h, n = 3, read-out: Brain Parenchyma Concentration, Mean ± SD), 482 ± 201 nM; in data set [1] (male, C57BL/6, mouse, plasma, ip, 10 mg/kg, 0.5 h, n = 3, read-out: Plasma Concentration, Mean ± SD), 585 ± 387 nM. The “B:P Ratio, Mean ± SD” value in data set [1] (0.083 h, IP 10 mg/kg, n = 3) was 0.28 ± 0.048. In addition, the “Brain Parenchyma Concentration, Individual” value in data set [1] (setting [5]) is recorded as “<LLQ”. Besides, the concentration at 0.083 h in data set [1] (male, C57BL/6, mouse, brain, ip, 10 mg/kg, 0.083 h, n = 3, read-out: Brain Parenchyma Concentration, Mean ± SD) stood at 1890 ± 776 nM; in data set [1] (male, C57BL/6, mouse, plasma, ip, 10 mg/kg, 0.083 h, individual mouse, read-out: Plasma Concentration, Individual) it was 7660 nM; in data set [1] (male, C57BL/6, mouse, plasma, ip, 10 mg/kg, 0.083 h, n = 3, read-out: Plasma Concentration, Mean ± SD), 6530 ± 1930 nM. The Kp at 0.083 h in data set [1] (male, C57BL/6, mouse, brain/plasma, ip, 10 mg/kg, 0.083 h, individual mouse, read-out: B:P Ratio, Individual) turned out to be 0.27. Besides, in data set [1] (male, C57BL/6, mouse, brain/plasma, ip, 10 mg/kg, 0.5 h, n = 3, read-out: B:P Ratio, Mean ± SD), the Kp at 0.5 h was found to be 1.2 ± 1. Also, in data set [1] (setting [6]), the concentration peaked (Cmax) at 6530 nM. In addition, in data set [1] (setting [6]), the Tmax is 5 min. The AUC(0-t) in data set [1] (mouse, plasma, male C57BL/6 mice, IP 10 mg/kg, read-out: Plasma AUC0-last) is 1.37 µM·h. The EC50 was 18.8 nM at 5-HT2C receptor, more than 10000 nM at 5-HT2B receptor and 34.9 nM at 5-HT2A receptor. The Emax at 5-HT2C receptor (HEK293 cells, Ca2+ flux) was 74.3%; on 5-HT2B receptor (CHO-K1 cells, Ca2+ flux), -1.07%; at 5-HT2A receptor (HEK293 cells, Ca2+ flux), 47.7%. Moreover, the “Head-twitch response (HTR)” value in the data set with C57BL/6J mice was “not promoting increased head-twitch response”. Also, the “Tolerability” value in the data set with C57BL/6J mice is “well-tolerated”.

For the compound `COc1ccc2[nH]nc(CCN(C)C)c2c1` [Example P-8, 2-(5-methoxy-1H-indazol-3-yl)-N,N-dimethylethan-1-amine], in the data set on Male ICR mice, the “Immobility time in tail suspension test” value is “decrease the immobility time”. The EC50 on 5-HT2B receptor (setting [2]) is more than 10000 nM.

As a reminder, the Emax is the size of the effect at its maximum, as opposed to the concentration needed. What is called EC50 is the concentration that produces a half-maximal response. A word on the Cmax: it is the peak of the concentration-time curve. The term Tmax denotes the time from dosing to the highest level.
